Laboratory results from PMC9848259 (Journal of Enzyme Inhibition and Medicinal Chemistry, 2023).

How the values were obtained:
SHSY5Y cell = assay: Toxicity towards SH-SY5Y cells (MTT); assay type: cell-based; conditions: 0.1–10 µM
Protocol: The SH-SY5Y (human neuroblastoma) (European Collection of Cell Culture) was chosen to determine the neuroprotective properties of the novel compounds. The Ham’s F12:EMEM (1:1) medium was used (Sigma Aldrich), comprising 15% Foetal Bovine Serum (Biowest), 2 mM Glutamine (Sigma Aldrich), 100 units/ml penicillin and […] (Biological Industries) and 1% Non-Essential Amino Acids (Biological Industries).
SH-SY5Y cells were seeded at a density of 5 × 10^3 cells/well in 96-well plates. The cells were cultured for 24 h (37 °C, 5% CO2). After 24 h of incubation, the medium was removed and cells were exposed to 100 µl of the compound at a range of concentrations, or of culture medium alone (blank control). After incubation, the medium was removed, washed with PBS and 50 µl of the MTT solution was added. The plates were then incubated for two hours (37 °C, 5% CO2). The MTT solution was then removed from the wells and 100 µl of DMSO was added. The plates were incubated for 10 min at room temperature and then 5 µl of Sorensen Buffer was added. The plates were swayed and the absorbance measured in a microplate reader (Synergy H1, BioTek, Winooski, VT, USA) at a wavelength of 570 nm. Cell viability was expressed as a percentage of control values (blank control). The experiments were done in triplicate.

DNA = DNA damage; conditions: any tested concentration
SH-SY5Y cells = assay: Neuroprotection against rotenone/oligomycin A, pre-incubation, MTT test; assay type: cell-based, human; conditions: Rotenone/Oligomycin A 30/10 µM
ACHE and BACE-1A = target: T1, ACHE and BACE-1A (Homo sapiens, UniProt P22303+P56817); assay: Yeast three-hybrid (Y3H) assay with β-galactosidase readout; assay type: cell-based, Saccharomyces cerevisiae; conditions: 10 µM ligand
T1 construct: the prepared pGBKT7-hACHE plasmid contained the cDNA fragment encoding for aa 52–577; obtained from the extracellular, N-terminal domain (aa 46–457) of BACE1A (GenBank: AF204943.1); host or cells: Saccharomyces cerevisiae Y2HGold (bait) mated with Y187 (prey)
Protocol: The Y3H method was used to analyse the possible hybrid-ligand induced interactions between five selected proteins. […]. Yeast codon optimisation was performed to facilitate high expression of human recombinant proteins in Saccharomyces cerevisae. The fragments for the signal peptide (aa 1–51) and domain responsible for protein tetramerization (aa 578–611) were obtained from the cDNA encoding for human ACHE (GenBank M55040.1). Therefore, the prepared pGBKT7-hACHE plasmid contained the cDNA fragment encoding for aa 52–577. […]
The yeast ẞ-galactosidase microplate assay protocol (stopped) was used to evaluate the ẞ-galactosidase activity in the yeast culture according to the manufacturer’s instructions. […] Optical density was measured at 660 nm and absorbance at 420 nm by a Synergy H1 spectrophotometer (Biotek). In the quantitative ẞ-galactosidase assay, the hybrid ligand 3e was used. […]

T1 sequence (P22303 52-577): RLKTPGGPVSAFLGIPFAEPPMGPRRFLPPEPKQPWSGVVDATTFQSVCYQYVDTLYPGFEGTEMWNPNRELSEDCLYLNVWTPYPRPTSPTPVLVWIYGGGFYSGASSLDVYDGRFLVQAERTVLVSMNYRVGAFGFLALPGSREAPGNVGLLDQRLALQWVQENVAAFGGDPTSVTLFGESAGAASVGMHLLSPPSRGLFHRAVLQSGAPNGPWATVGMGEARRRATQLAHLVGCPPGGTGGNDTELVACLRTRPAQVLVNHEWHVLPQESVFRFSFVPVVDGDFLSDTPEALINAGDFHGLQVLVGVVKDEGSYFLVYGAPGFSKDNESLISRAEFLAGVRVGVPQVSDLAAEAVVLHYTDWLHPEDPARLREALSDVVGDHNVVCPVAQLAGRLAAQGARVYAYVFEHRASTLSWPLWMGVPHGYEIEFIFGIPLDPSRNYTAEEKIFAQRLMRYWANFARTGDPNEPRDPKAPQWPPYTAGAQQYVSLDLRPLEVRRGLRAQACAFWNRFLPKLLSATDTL
T1 sequence (P56817 46-457): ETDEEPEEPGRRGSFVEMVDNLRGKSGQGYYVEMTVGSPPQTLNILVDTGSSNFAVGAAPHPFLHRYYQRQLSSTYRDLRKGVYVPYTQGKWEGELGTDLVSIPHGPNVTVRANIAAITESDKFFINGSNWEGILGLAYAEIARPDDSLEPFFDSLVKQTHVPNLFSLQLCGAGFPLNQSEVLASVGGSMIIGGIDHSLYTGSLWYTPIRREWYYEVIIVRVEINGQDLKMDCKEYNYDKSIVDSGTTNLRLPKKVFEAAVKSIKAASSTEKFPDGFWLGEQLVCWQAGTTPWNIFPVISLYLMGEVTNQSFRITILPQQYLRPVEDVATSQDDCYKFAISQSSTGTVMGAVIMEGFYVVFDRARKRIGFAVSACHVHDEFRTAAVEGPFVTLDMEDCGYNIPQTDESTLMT

With `O=C(NCCCCCCNc1c2c(nc3ccccc13)CCC2)c1cc(Cl)cc(Cl)c1` [Compound 3e] the “toxicity towards SHSY5Y cell” value (SHSY5Y cell) was “non-toxic”, the DNA damage (DNA) was “did not induce DNA damage” and the “% neuroprotection” value (SH-SY5Y cells; compound 0.0001 µM) was 17.64%. The “% neuroprotection” value (SH-SY5Y cells; compound 0.001 µM) was 12.46%, the “% neuroprotection” value (SH-SY5Y cells; compound 0.01 µM) was 7.65% and the “% neuroprotection” value (SH-SY5Y cells; compound 0.1 µM) was 2.41%. For the same compound, the “β-galactosidase activity (strength of interaction)” value (ACHE and BACE-1A; 96 h, triplicate) was 206.37 ± 4.85 units and the “hybrid ligand-mediated interaction of ACHE-BACE-1A protein pair (blue colonies)” value (ACHE and BACE-1A; DDO and QDO/X/A plates) was “yielded blue colonies”.
